{"source": "patent US8163921B2", "about": "“Hepatitis C virus inhibitors” (Bristol-Myers Squibb Company, priority 2008, dated 2012)", "key": {"[1]": {"system": "HCV replicon in HUH-7 cells", "assay": "HCV replicon FRET assay", "type": "cell-based, HCV strain 1b", "conditions": "Hepatitis C virus, Huh-7; read-out: EC50 value in the replicon FRET assay"}, "[2]": {"target": "T1, human neutrophil elastase (HNE) (Homo sapiens, UniProt P08246)", "T1 construct": "purchased Sigma, EMDbiosciences", "T1 sequence (P08246 30-247 limits assumed)": "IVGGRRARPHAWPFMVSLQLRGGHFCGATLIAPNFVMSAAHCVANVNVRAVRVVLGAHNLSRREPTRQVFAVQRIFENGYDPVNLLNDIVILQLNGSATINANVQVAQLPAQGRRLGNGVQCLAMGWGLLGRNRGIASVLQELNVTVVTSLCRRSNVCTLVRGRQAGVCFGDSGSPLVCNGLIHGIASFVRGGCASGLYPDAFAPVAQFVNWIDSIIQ", "assay": "Specificity assay, elastase (HNE)", "type": "biochemical", "conditions": "read-out: HLE activity in the specificity assays", "procedure": "(§1) The specificities of compounds of the present disclosure were determined against a variety of serine proteases: human neutrophil elastase (HNE), porcine pancreatic elastase (PPE) and human pancreatic chymotrypsin and one cysteine protease: human liver cathepsin B. In all cases a 96-well plate format protocol using a fluorometric Amino-Methyl-Coumarin (AMC) substrate specific for each enzyme was used as described previously (PCT Patent Application No. WO 00/09543) with some modifications to the serine protease assays. All enzymes were purchased from Sigma, EMDbiosciences while the substrates were from Bachem, Sigma and EMDbiosciences.\n(§2) Compound concentrations varied from 100 to 0.4 μM depending on their potency. The enzyme assays were each initiated by addition of substrate to enzyme-inhibitor pre-incubated for 10 min at room temperature and hydrolysis to 15% conversion as measured on cytofluor.\n50 mM Tris-HCl, pH 8.0, 50 mM NaCl, 0.1 mM EDTA, 3% DMSO, 0.02% Tween-20, 5 μM succ-AAPV-AMC and 20 nM HNE or 8 nM PPE;\n(§3) The percentage of inhibition was calculated using the formula: [1−((UVinh−UVblank)/(UVctl−UVblank))]×100\n(§4) A non-linear curve fit was applied to the inhibition-concentration data, and the 50% effective concentration (IC50) was calculated by the use of Excel XLfit software."}, "[3]": {"system": "HCV replicon (Renilla luciferase) in HUH-7 cells", "assay": "HCV replicon luciferase reporter assay", "type": "cell-based, HCV strain 1b", "excerpt": "An HCV replicon whole cell system was established as described by Lohmann V, Korner F, Koch J, Herian U, Theilmann L, Bartenschlager R., Science 285(5424):110-3 (1999). This system enabled us to evaluate the effects of our HCV Protease compounds on HCV RNA replication. Briefly, using the HCV strain 1b sequence described in the Lohmann paper (Assession number:AJ238799), an HCV cDNA was synthesized by Operon Technologies, Inc. (Alameda, Calif.), and the full-length replicon was then assembled in plasmid pGem9zf(+) (Promega, Madison, Wis.) using standard molecular biology techniques. […]\nAs a secondary assay, EC50 determinations from the replicon FRET assay were confirmed in a replicon luciferase reporter assay. […] Following 4 days in a 37° C./5% CO2 incubator, cells were analyzed for Renilla Luciferase activity using the Promega Dual-Glo Luciferase Assay System. […] Plates were read on a Packard TopCount NXT using a luminescence program. The percentage inhibition was calculated using the formula below: % control=average luciferase signal in experimental wells (+compound) average luciferase signal in DMSO control wells (−compound)\nThe values were graphed and analyzed using XLfit to obtain the EC50 value."}, "human liver cathepsin B": {"target": "T2, human liver cathepsin B (Homo sapiens, UniProt P07858)", "T2 construct": "purchased Sigma, EMDbiosciences; host or cells: human liver (as named)", "assay": "Specificity assay, cathepsin B", "type": "biochemical", "conditions": "read-out: Cathepsin B activity in the specificity assays", "procedure": "as §1, §2\n100 mM NaOAC (Sodium Acetate) pH 5.5, 3% DMSO, 1 mM TCEP (Tris(2-carboxyethyl)phosphine hydrochloride), 5 nM Cathepsin B (enzyme stock activated in buffer containing 20 mM TCEP before use), and 2 μM Z-FR-AMC diluted in H2O.\nas §3, §4"}}, "data": [{"smiles": "C=C[C@@H]1C[C@]1(NC(=O)[C@@H]1C[C@@H](Oc2ncc(OC)c3ccc(Cl)cc23)CN1C(=O)[C@@H](Nc1nc(-c2cccc(OC(F)(F)F)c2)cs1)C(C)(C)C)C(=O)NS(=O)(=O)C1CC1", "note": "[Example 68]", "values": [{"measurement": "EC50", "setting": "[1]", "result": 5.7, "unit": "nM"}, {"measurement": "IC50", "setting": "[2]", "result": "> 50000", "unit": "nM"}, {"measurement": "EC50", "setting": "[3]", "result": 2, "unit": "nM"}, {"measurement": "IC50", "setting": "human liver cathepsin B", "result": 15000, "unit": "nM"}]}]}
